From US11214806B2, “Marker, method and kit for observing effect of compound or drug on cells in real time, and use thereof” (priority 2016, dated 2022)
Entries after “also recorded” stand apart in the source; their conditions may differ.

Assays:
[1] = system: VirE2 trafficking in N. benthamiana (Nb308A) leaf epidermal cells; assay: Real-time VirE2-GFPcomp trafficking in agroinfiltrated tobacco leaf epidermal cells (split-GFP, confocal microscopy); assay type: cell-based; settings: for effect on VirE2 trafficking: infiltrated 6 h before observation, control 0.5% DMSO, FIG. 1b-d; for effect on real-time movement process of protein VirE2-GFP / toxicity as judged from VirE2-GFP movement: drug infiltrated into leaf six hours before observation, FIG. 11
Procedure: To visualize Agrobacterium-delivered VirE2, agroinfiltration was performed as described previously. Briefly, the bacteria were grown overnight; the cultures were diluted 50 times in MG/L and grown for 6 h. The bacteria were collected and re-suspended in infiltration buffer (10 mM MgCl2, 10 mM MES, pH5.5) to OD600=1.0. The bacterial suspension was infiltrated using a syringe to the underside of fully expended N. benthamiana leaves. The infiltrated plant was placed at 22° C. in a photoperiod of 16 h light/8 h dark. In order to observe a real-time effect of a compound or a drug on cells in real time, the inventor injected and infiltrated the compound or the drug into a leaf injected and infiltrated with A. tumefaciens EHA105virE2::GFP11 cell at an appropriate concentration, and observed with a UPLSAPO×60 N.A. 1.20 water immersion lens under a confocal microscope after six hours.
A PerkinElmer UltraView Vox Spinning Disk system with EM-CCD cameras was used for confocal microscopy. To observe leaf epidermis, agroinfiltrated leaf tissues were detached from N. benthamiana plants and put in 2% low-melting agarose gel on a glass slide with a coverslip. All images were taken in multiple focal planes (Z-stacks), and were processed to show the extended focus image or 3D opacity view by Volocity® 3D Image Analysis Software 6.2.1.
FIG. 1 illustrated Agrobacterium-delivered VirE2 trafficking on a cellular structure and entering the nucleus. A. tumefaciens EHA105virE2::GFP11 cells were infiltrated into transgenic N. benthamiana (Nb308A) leaves expressing both GFP1-10 and DsRed. […] Red, free DsRed; Green, VirE2-GFPcomp. (a) Time-lapse images of VirE2 aggregates trafficking along a linear cellular structure and entering the nucleus. Relative time is shown at the top right. Scale bar represents 20 μm. (b) Effects of chemical treatments on VirE2 trafficking. Chemicals were infiltrated into leaf samples 6 h before observation. Control, 0.5% DMSO. Colc, colchicine […] CytoD, cytochalasin D 20 μM. BFA, brefeldin A 100 μg/mL. Scale bar represents 20 μm. (c) Mean velocities of VirE2 aggregate movement after chemical treatments. Data analyzed with ANOVA and Tukey test, p<0.05. (d) Movement tracking of 20 individual VirE2 aggregates plotted to a common origin for each treatment.
FIG. 4 illustrated effects of ML-7 and myosin-tail overexpression on VirE2 trafficking. (a) Effect of ML-7, a myosin light chain kinase inhibitor, on VirE2 trafficking. A. tumefaciens EHA105virE2::GFP11 cells were infiltrated into transgenic N. benthamiana (Nb308A) leaves expressing both GFP1-10 and DsRed. The leaves were infiltrated with 100 μM ML-7 or 1% DMSO as control 4 h before imaging. […] Red, free DsRed; Green, VirE2-GFPcomp. The movement tracking of 20 individual VirE2 aggregates plotted to a common origin is shown below the figure. Scale bar represents 20 μm. (b) Mean velocity of the VirE2 aggregates after ML-7 treatment. (c) Effects of myosin-tail overexpression on VirE2 trafficking. A. tumefaciens EHA105virE2::GFP11 cells harboring a binary plasmid which encodes a tail fragment of respective myosins downstream of 35S promoter were infiltrated into transgenic N. benthamiana (Nb308A) leaves expressing both GFP1-10 and DsRed. […] Red, free DsRed; Green, VirE2-GFPcomp. The movement tracking of 20 individual VirE2 aggregates plotted to a common origin is shown below the figure. Scale bar represents 20 μm. (d) Mean velocity of VirE2 aggregate movement under overexpression of myosin tails. EV, empty vector control. (e) Western analysis of crude extracts from leaf samples agroinfiltrated with myosin-tail constructs. EV, empty vector control. Myosin tails were HA tagged. GFP1-10 was detected to assess the amount of sample loaded, as shown in the lower panel. […]
FIG. 11 illustrated an effect of a drug on VirE2 movement. A. tumefaciens EHA105virE2::GFP11 cell was injected and infiltrated into a transgenic tobacco line Nb308A constantly expressing a GFP1-10 and a DsRed. […]

actin structures = assay: Effects of chemicals on cellular structures: actin marker tdTomato-ABD2; assay type: cell-based, N. benthamiana; settings: 20 μM cytochalasin D at 6 h before imaging; tobacco leaves
Procedure: (§1) FIG. 5 illustrated effects of chemicals on respective cellular structures. Wild type N. benthamiana leaves were agroinfiltrated with binary plasmids encoding different fluorescent markers. The epidermal cells were examined at 2 d post agroinfiltration under confocal microscope with Olympus UPLSAPO 60×N.A. 1.20 water immersion objective. Upper panels a-c: leaf samples expressing subcellular markers. Lower panels d-f: leaf samples expressing subcellular markers were treated with chemicals. (a) RFP-MBD. MBD, Microtubule Binding Domain. (b) ER-mCherry. (c) tdTomato-ABD2. ABD, Actin Binding Domain. (d) RFP-MBD. Leaf samples were treated with 500 μM colchicine at 6 h before imaging. (e) ER-mCherry. Leaf samples were treated with 100 μg/mL BFA at 6 h before imaging. (f) tdTomato-ABD. Leaf samples were treated with 20 μM cytochalasin D at 6 h before imaging. Scale bar represents 20 μm.

microtubule = assay: Effects of chemicals on cellular structures: microtubule marker RFP-MBD; assay type: cell-based, N. benthamiana; settings: 500 μM colchicine at 6 h before imaging; tobacco leaves
Procedure: as §1

[2] = system: Arabidopsis root transformation; assay: Root tumorigenesis assay (Arabidopsis root transformation with tumor inducing strain A348); assay type: cell-based, A. thaliana; settings: 10 μM ML-7 in co-cultivation mixture, FIG. 9
Procedure: Arabidopsis thaliana seeds were surface-sterilized with 0.5% NaClO solution and placed onto solidified ½×MS medium supplemented with 1% sucrose and 0.5 g L^−1 MES, pH 5.8. The plates were then incubated under a 16 hour photoperiod at 25° C. for 10 to 12 days. Roots from individual seedlings were cut into 3-5 mm segments and re-suspended in 1 ml fresh ½×MS medium containing A. tumefaciens cells at a concentration of 5×10^8 cell/ml unless specified otherwise. The mixtures were spread onto a solidified ½×MS plate and subsequently incubated at 25° C. for 2 days. The root segments were aligned onto ½×MS medium plates containing […] cefotaxime and kept at 25° C. for 4 weeks before photographing.
(§2) FIG. 9 illustrated effects of ML-7 treatment on root tumorigenesis assay. Root segments from 10-day old wild type A. thaliana seedlings were infected with a tumor inducing Agrobacterium stain A348. Tumors were photographed three weeks later. (a) Tumors formed with or without ML-7 treatment. ML-7 was added (10 μM) into the col-cultivation mixture and then washed off when the root segments were transferred onto new plates for tumor formation. (b) Tumorigenesis efficiency as determined by percentage of root segments with tumors. (c) Effect of ML-7 on root segment viability. (d) Effect of ML-7 on Agrobacterium viability

Agrobacterium = assay: Effect of ML-7 on Agrobacterium viability; assay type: cell-based, A. tumefaciens; settings: 10 μM ML-7
Procedure: (§3) The inventor wants to determine if the VirE2 movement observed during our studies is directly relevant to Agrobacterium-mediated transformation. The present invention tested the effect of a selective myosin light chain kinase inhibitor ML-7 on Arabidopsis root transformation. Root segments were inoculated with a tumor inducing strain A348 in the presence of 10 μM ML-7. […] The present invention tested the toxicity of ML-7 on either the root or Agrobacterium growth at 10 μM ML-7. The root segments were exposed to 10 μM of ML-7 for 2 days, which was the time span for the bacterium-Arabidopsis co-cultivation.
as §2

root segments = assay: Effect of ML-7 on root segment viability; assay type: cell-based, A. thaliana; settings: 10 μM ML-7 for 2 days, in the presence of hormones (auxin and cytokinin); FIG. 9c
Procedure: as §3, §2

ER = assay: Effects of chemicals on cellular structures: ER marker ER-mCherry; assay type: cell-based, N. benthamiana; settings: 100 μg/mL BFA at 6 h before imaging; tobacco leaves
Procedure: as §1

[3] = colchicine 500 μM, cytochalasin D 20 μM, brefeldin A 100 μg/mL

Structure (SMILES): C=C1[C@@H](C)[C@H]2[C@H](Cc3ccccc3)NC(=O)[C@]23[C@H](OC(C)=O)/C=C/[C@@](C)(O)C(=O)[C@@H](C)C/C=C/[C@H]3[C@@H]1O [cytochalasin D]
- effect on VirE2 trafficking [1, 3]: severely affected
- effect on VirE2 trafficking ([1]; colchicine 500 μM, cytochalasin D 20 μM, brefeldin A 100 μg/mL, listed as CytoD): stop the VirE2 movement
- effect on actin structure (actin structures): disrupted

Structure (SMILES): CC(=O)N1CCN(c2ccc(OCC3COC(Cn4ccnc4)(c4ccc(Cl)cc4Cl)O3)cc2)CC1 (centres unmarked) [Ketoconazole]
- effect on real-time movement process of protein VirE2-GFP [1]: does not affect
- toxicity as judged from VirE2-GFP movement [1]: less toxic

Structure (SMILES): Clc1ccc(COC(Cn2ccnc2)c2ccc(Cl)cc2Cl)cc1 (centres unmarked) [Econazole]
- effect on real-time movement process of protein VirE2-GFP [1]: significantly affects
- toxicity as judged from VirE2-GFP movement [1]: highly toxic

Structure (SMILES): COc1cc2c(c(OC)c1OC)-c1ccc(OC)c(=O)cc1[C@@H](NC(C)=O)CC2 [colchicine]
- effect on microtubule structure (microtubule): disrupted
- average velocity of VirE2 movement, relative to the control ([1]; colchicine 500 μM, cytochalasin D 20 μM, brefeldin A 100 μg/mL, 6 h before observation, over 20 events per treatment, FIG. 1c): over 60%
- effect on VirE2 trafficking [1, 3]: minor effect; also recorded: did not affect the VirE2 trafficking significantly

Structure (SMILES): O=S(=O)(c1cccc2c(I)cccc12)N1CCCNCC1 [ML-7]
- transformation efficiency (tumorigenesis) [2]: significantly reduced
- Agrobacterium growth (Agrobacterium): did not inhibit
- effect on VirE2 movement ([1]; 100 μM ML-7 infiltrated 4 h before imaging, control 1% DMSO, FIG. 4): obviously stops
- decrease of average rate of the movement of the VirE2 compared with control group ([1]; 100 μM ML-7 infiltrated 4 h before imaging, control 1% DMSO, FIG. 4b): 95%
- growth of root segments (root segments): did not affect

Structure (SMILES): C[C@H]1CCC/C=C/[C@@H]2C[C@H](O)C[C@H]2[C@H](O)/C=C/C(=O)O1 [brefeldin A]
- effect on ER structure (ER): disrupted
- effect on VirE2 trafficking [1, 3]: severely affected
